In PubChem BioAssay (NCI) one finds TGI and GI50 data, which are given here for 16 compounds.

Holding throughout (experiment): NCI-60 cell line screen, 48 h
Assay [1] relates to OVCAR-5 ovarian.
The subject of assay [2] is HT29 colon.
For assay [3], the system named is KM12 colon.
Assay [4] has as its system RXF 393 renal.
In assay [5] the test system is SR leukemia.
For assay [6], the system named is SK-MEL-2 melanoma.
In assay [7] the test system is ACHN renal.
Assay [8] relates to MALME-3M melanoma.
The test system of assay [9] is MDA-MB-231 breast.

Molecules are shown by their SMILES.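 96-well plates; 48 h exposure; 5 concentrations. Endpoints by linear interpolation between flanking doses. Not reached: highest tested concentration assigned. The concentration for 50% growth inhibition is given as GI50. TGI is the concentration that stops growth completely.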

For `COCCOCOC(C)(C)[C@H](CCOC(C)=O)O[Si](c1ccccc1)(c1ccccc1)C(C)(C)C`, the TGI was more than 100 µM in [1]; 28.5 µM in assay [2]; more than 100 µM in assay [3]; 45.7 µM in [4]; 14 µM in [5]; 59.2 µM in [6]. In addition, the TGI in assay [7] was determined as 51.1 µM; in [8], 55.3 µM.

Consider `NC(=O)C12CC3CC(CC(Br)(C3)C1)C2`, for which the TGI in assay [1], in assay [2], in assay [3], in assay [5] and in assay [7] was more than 100 µM in each case.

For the compound `O=C(N/C(=C\c1cc(Cl)ccc1Cl)c1nc2ccc(Cl)cc2[nH]1)c1ccccc1`, the TGI in assay [1] stood at 60.1 µM; in assay [2], 30.9 µM; in assay [3], 29.4 µM; in assay [4], 29.2 µM; in assay [5] it was 25.5 µM; in assay [6] it was 32.4 µM. Also, the TGI in assay [7] was determined as 78.1 µM; in assay [8] it was 35.8 µM.

As for `COC/N=C(/N)NC#N`, the TGI in assay [1] was more than 100 µM; in assay [2] it was more than 100 µM; in assay [3], more than 100 µM; in [4], more than 100 µM; in [5], 53.4 µM; in assay [6], more than 100 µM. Further, the TGI in assay [7] and in assay [8] was more than 100 µM in each case.

For the compound `C/C(=C\Cc1cc(O)ccc1O)CCc1c(C)c(O)c(O)c(C=O)c1C`, the TGI in assay [2] came to 64.8 µM; in assay [3], 44.3 µM; in assay [4], 43.8 µM; in [5], 51 µM; in [6], 54.4 µM; in assay [7] it was 52.8 µM. In addition, in assay [8], the TGI amounted to 80.2 µM.

`COc1ccc(Cc2nc3ccccc3s2)cc1OC`: the TGI in assay [1] came to 37.6 µM; in assay [2], 35.8 µM; in assay [3] it was 32.2 µM; in assay [4], 34.7 µM; in assay [5], 57.1 µM; in assay [6] it was 42.6 µM. Besides, the TGI in assay [7] was determined as 31 µM; in assay [8], 32.6 µM.

Turning to `COc1cc(/C=C\c2ccncc2)cc(OC)c1OC`, the TGI in [1], in assay [2], in [3], in assay [4], in assay [7] and in assay [8] was more than 100 µM each time.

As for `COC(=O)/C(C#N)=C1\CCc2ccccc21`, the TGI in [1], in assay [2], in assay [3], in [4], in [6] and in assay [7] was more than 100 µM in each case. In addition, the TGI in assay [8] was more than 100 µM.

As to `Cc1cc(C)nc(NS(=O)(=O)c2ccc(NC(=O)c3cccn4c(=O)c5ccccc5nc34)cc2)n1`, the TGI in assay [1] was more than 100 µM; in [2] it was more than 100 µM; in assay [3], more than 100 µM; in assay [4], 67.4 µM; in [5], more than 100 µM; in [6], more than 100 µM. Further, in [7], the TGI is more than 100 µM.

Consider `COC(=O)C#CCC1CCCC1C1SCCS1` (stereo not drawn), for which the TGI was more than 100 µM in [1]; more than 100 µM in assay [2]; more than 100 µM in [3]; more than 100 µM in assay [4]; 84.3 µM in [5]; 74.6 µM in [6]. For the same compound, the TGI in assay [7] and in assay [8] was more than 100 µM in each case.

With `N.N.N.N.N.O=S(=O)([O-])C(F)(F)F.O=S(=O)([O-])C(F)(F)F.[Os+8]`, the GI50 in assay [1] was 15.4 µM; in assay [2], 15.4 µM; in [3], 13.7 µM; in assay [4] it was 5.37 µM; in assay [6], 11.7 µM; in assay [7] it was 19.8 µM. Further, the GI50 in assay [8] is 4.53 µM. Moreover, the TGI in assay [1] was 31.9 µM; in [2], 55.3 µM; in assay [3], 35 µM; in assay [4], 18.7 µM; in assay [6], 24.7 µM; in [7], more than 100 µM. This compound also registered a TGI in assay [8] of 19.9 µM.

For `COc1ccc(-c2ccc(/C=N/n3c(COc4ccccc4Cl)n[nH]c3=S)o2)c([N+](=O)[O-])c1`, the GI50 in [9] was 46.7 µM; in assay [1], 44.9 µM; in [2], 41.1 µM; in [3], 20.9 µM; in [4], 15.5 µM; in assay [5], 34.8 µM. In addition, in [7], the GI50 was 25.6 µM. The TGI in assay [9] is more than 100 µM; in [1] it was more than 100 µM; in assay [2], more than 100 µM; in [3], 49.5 µM; in assay [4], 52.1 µM; in assay [5], 76.7 µM. This compound gave a TGI in [7] of 69.5 µM.

For `CCN(CC)CCCC(C)Nc1c(Sc2cnc3cc(Cl)ccc3c2NC(C)CCCN(CC)CC)cnc2cc(Cl)ccc12` (stereo not drawn), the TGI stood at 3.34 µM in assay [1]; 3.65 µM in [2]; 3.79 µM in [3]; 3.22 µM in assay [4]; 3.3 µM in [6]; 3.82 µM in assay [7]. Also, the TGI in [8] is 3.71 µM.

Turning to `CC1=NN(C(=O)c2ccc(Cl)cc2)C(=O)/C1=C/c1ccc(Cl)cc1`, the TGI in assay [1], in [2], in [3], in [4], in assay [6] and in assay [7] was more than 100 µM each time. Also, in assay [8], the TGI is more than 100 µM.

Turning to `CCCCc1c2c(nc3c1CCc1cc4cc5c(nc4nc1-3)-c1nc3c(c(CCCC)c1CC5)CCC/C3=C\c1ccccc1)/C(=C/c1ccccc1)CCC2`, the TGI in assay [2], in assay [3], in assay [4], in [5], in [7] and in assay [8] was more than 100 µM throughout.

In the case of `C#C[C@H]1CCCCCC1O` (stereo partly drawn), the TGI in [1], in [2], in [3], in assay [4], in assay [5] and in assay [6] was more than 100 µM throughout. In addition, the TGI in [7] and in [8] was more than 100 µM throughout.
